Measured values as given in ChEMBL document CHEMBL1139380, “Edaravone derivatives containing NO-donor functions” (J Med Chem, 2009).
The source made the active and inactive calls. The calls are words filed in the database; no cut-off is given here.

Columns and labels:
physchem [1] = details: octanol/water, pH 7.4
physchem [2] = details: octanol/water
Description: Lipophilicity, neutral log P of the compound

physchem [3] = test: physchem
Description: Dissociation constant, pKa by potentiometric titration

Liver microsomes [4] = system: Liver microsomes
Description: Antioxidant activity against Fe2SO4/ascorbate-induced lipid peroxidation in Wistar rat liver microsomal membrane by TBARS assay

Aorta [5] = system: Aorta
Description: (§1) Vasodilation activity in Wistar rat aorta assessed as relaxation of phenylephrine-induced contraction

Aorta [6] = test: tissue or blood; details: Rattus norvegicus, Wistar
Description: as §1

[7] = octanol/water
Description: Lipophilicity, ionic log P by shake flask method

Liver microsomes [8] = test: Antioxidant activity against […]/ascorbate-induced lipid peroxidation in Wistar rat liver microsomal membrane at 05 to 15 uM by TBARS assay; assay type: functional; details: Microsome

## CC1=NN(c2ccccc2)C(=O)C1 [EDARAVONE]
Physchem [1]
  logD: 0.78
Physchem [2]
  logP: 1.28
Physchem [3]
  pKa: 6.9
Liver microsomes [4]
  IC50: 17000 nM
Aorta [5]
  EC50: Not Active

## CC1=NN(c2ccc(OCCCCC(CO[N+](=O)[O-])O[N+](=O)[O-])cc2)C(=O)C1 (stereo not drawn)
Physchem [1]
  logD: 2.54
Physchem [2]
  logP: 3.1
Physchem [3]
  pKa: 7.15
Liver microsomes [4]
  IC50: 2900 nM
Aorta [6]
  EC50: 680 nM
[7]
  logPi: 0.05

## COc1no[n+]([O-])c1-c1ccccc1
Liver microsomes [8]
  Activity: inactive
Physchem [2]
  logP: 2.47
Aorta [6]
  EC50: 5600 nM

## COCCCO[N+](=O)[O-]
Liver microsomes [8]
  Activity: inactive
Physchem [2]
  logP: 1.01
Aorta [6]
  EC50: 9600 nM

## COCc1no[n+]([O-])c1C#N
Liver microsomes [8]
  Activity: inactive
Physchem [2]
  logP: 0.83
Aorta [6]
  EC50: 9.5 nM

## CC1=NN(c2ccc(OCc3no[n+]([O-])c3C#N)cc2)C(=O)C1
Physchem [1]
  logD: 1.28
Physchem [2]
  logP: 1.72
Physchem [3]
  pKa: 7.06
Liver microsomes [4]
  IC50: 5800 nM
Aorta [6]
  EC50: 23 nM
[7]
  logPi: -0.99

## CC1=NN(c2ccc(OCCCO[N+](=O)[O-])cc2)C(=O)C1
Physchem [1]
  logD: 1.59
Physchem [2]
  logP: 1.9
Physchem [3]
  pKa: 7.11
Liver microsomes [4]
  IC50: 3400 nM
Aorta [6]
  EC50: 1100 nM
[7]
  logPi: -1.07

## COCc1no[n+]([O-])c1C(N)=O
Liver microsomes [8]
  Activity: inactive
Physchem [2]
  logP: 0.14
Aorta [6]
  EC50: 3900 nM

## CC1=NN(c2ccc(OCc3no[n+]([O-])c3C(N)=O)cc2)C(=O)C1
Physchem [1]
  logD: 0.48
Physchem [2]
  logP: 0.92
Physchem [3]
  pKa: 7.08
Liver microsomes [4]
  IC50: 7900 nM
Aorta [6]
  EC50: 2800 nM

## CCOc1no[n+]([O-])c1S(=O)(=O)c1ccccc1
Liver microsomes [8]
  Activity: inactive
Physchem [2]
  logP: 3.15
Aorta [6]
  EC50: 12 nM

## CC1=NN(c2ccc(OCCCCCCO[N+](=O)[O-])cc2)C(=O)C1
Physchem [1]
  logD: 2.67
Physchem [2]
  logP: 3.34
Physchem [3]
  pKa: 7.12
Liver microsomes [4]
  IC50: 2100 nM
Aorta [6]
  EC50: 980 nM
[7]
  logPi: 0.15

## COCCCCCCO[N+](=O)[O-]
Liver microsomes [8]
  Activity: inactive
Physchem [2]
  logP: 2.23
Aorta [6]
  EC50: 1400 nM

## CC1=NN(c2ccc(OCCCOc3no[n+]([O-])c3S(=O)(=O)c3ccccc3)cc2)C(=O)C1
Physchem [1]
  logD: 3.16
Physchem [2]
  logP: 3.62
Physchem [3]
  pKa: 7.12
Liver microsomes [4]
  IC50: 3800 nM
Aorta [6]
  EC50: 77 nM
[7]
  logPi: 0.4

## COc1ccc(N2N=C(C)CC2=O)cc1
Physchem [1]
  logD: 0.77
Physchem [2]
  logP: 1.19
Physchem [3]
  pKa: 7.06
Liver microsomes [4]
  IC50: 20000 nM
Aorta [5]
  EC50: Not Active
